Results published in BindingDB's records for doi:10.1021/jm00163a069 (Merck Sharp & Dohme Research Laboratories, 1990).

Assay: Inhibition of binding of [125I]CCK-8 to Cholecystokinin type B receptor in guinea pig brain tissues

## O=C(NCC1CNc2ccccc2C(c2ccccc2F)=N1)C(O)c1ccccc1 (stereo unspecified)
  IC50: > 100 µM
